These results are taken from patent publication EP1144368B1, “ACETYLENIC ALPHA-AMINO ACID-BASED SULFONAMIDE HYDROXAMIC ACID TACE INHIBITORS” (priority 1999, dated 2000).

Structures are written as SMILES.

One assay deals with THP-1 cells. Put plainly: THP-1 Soluble Protein Assay (LPS-stimulated; ELISA of TNF-a, TNF-R p75/80, TNF-R p55/60, IL-8). The class given is cell-based, human. As to conditions: Homo sapiens, THP-1, 3 µM; read-out: THP % Inhibition @ 3µM. (In general: An ELISA detects its analyte on a solid surface through an enzyme-linked reagent.)
Method: Each vial of cells are cultured for about two weeks prior to being used for an assay and then are used for only 4 to 6 weeks to screen compounds.
Plates are placed into an incubator set at 5% CO2 and at 37° C. After 4 hours of incubation, 300 ml/well of tissue culture supernatant (TCS) is removed for use in an TNF-a ELISA.
Percent change in each soluble protein evaluated from the "vehicle positive control" was calculated for each compound concentration with the following formula: % Change =(pg/ml (compound) - pg/ml (veh pos control))/(pg/ml (veh pos control) - pg/ml (veh neg control))x 100 [formula]
For the soluble protein (TNF-a, p75/80, p55/60, IL-8) studies under stimulated conditions, the mean pg/ml of duplicate wells were determined and the results expressed as percent change from "vehicle positive control".
In the case of `CC#CCOc1ccc(S(=O)(=O)N2CCCSC(C)(C)[C@@H]2C(=O)NO)cc1` [Example 173], the inhibition at 3 µM was determined as 80%.
Still for that read-out and setting: with `CC#CCOc1ccc(S(=O)(=O)N2CCCSC[C@@H]2C(=O)NO)cc1` [Example 174] the figure was 80%.
Turning to `CC#CCOc1ccc(S(=O)(=O)N2CCCS(=O)(=O)C[C@@H]2C(=O)NO)cc1` [Example 175], the inhibition at 3 µM turned out to be 83%.

Still in this assay, the particulars now being: Homo sapiens, THP-1, read-out: THP % inhibition @ 3 µM, 3 µM.
For the compound `CC#CCOc1ccc(S(=O)(=O)N(C)C(C(=O)NO)C(C)(C)SCCN(CC)CC)cc1` (centres unmarked) [Example 142, 2-({[4-(2-Butynyloxy)phenyl]sulfonyl)(methyl)amino]-N-hydroxy-3 methyl-3-{[2-(diethylamino)ethyl]sulfanyl}butanamide], the inhibition at 3 µM stood at 89%.
The same measure, in the same setting: with `CC#CCOc1ccc(S(=O)(=O)N(C)C(C(=O)NO)C(C)(C)SCCN2CCCC2)cc1` (centres unmarked) [Example 143, 2-({[4-(2-Butynyloxy)phenyl]sulfonyl)(methyl)amino]-N-hydroxy-3-methyl-3-{[2(1-pyrrolidinyl)ethyl]sulfanyl}butanamide] the figure was 86%; with `CC#CCOc1ccc(S(=O)(=O)N(C)C(C(=O)NO)C(C)(C)SCCn2ccnc2)cc1` (centres unmarked) [Example 144, 2-({[4-(2-Butynyloxy)phenyl]sulfonyl)(methyl)amino]-N-hydroxy-3-methyl-3-{[2-(1H-imidazol-1-yl)ethyl]sulfanyl}butanamide], 89%.
For the compound `CC#CCOc1ccc(S(=O)(=O)N(C)C(C(=O)NO)C(C)(C)SCCCN2CCOCC2)cc1` (centres unmarked) [Example 146], the inhibition at 3 µM is 84%.
Same read-out and setting: with `CC#CCOc1ccc(S(=O)(=O)N(C)C(C(=O)NO)C(C)(C)SCCCN2CCN(C)CC2)cc1` (centres unmarked) [Example 147, 2-({[4-(2-Butynyloxy)phenyl]sulfonyl)(methyl)amino]-N-hydroxy-3-methyl-3-{[2(4-methyl-1-ethyl-1-piperazinyl)propyl]sulfanyl}butanamide] the figure was 89%.
Still for that read-out and setting: with `CC#CCOc1ccc(S(=O)(=O)N(C)C(C(=O)NO)C(C)(C)SC)cc1` (centres unmarked) [Example 149, 2-[(4-But-2-ynyloxy-benenesulfonyl)-methyl-amino]-N-hydroxy-3-methyl-3-methylsulfanyl-butyramide] the figure was 88%.
Consider `CC#CCOc1ccc(S(=O)(=O)N(C)C(C(=O)NO)C(C)(C)SCCC)cc1` (centres unmarked) [Example 151, 2-[(4-But-2-ynyloxy-benenesulfonyl)-methyl-amino]-N-hydroxy-3-methyl-3-propylsulfanyl-butyramide], for which the inhibition at 3 µM turned out to be 82%.
As to `CC#CCOc1ccc(S(=O)(=O)N(C)C(C(=O)NO)C(C)(C)SCc2ccccc2)cc1` (centres unmarked) [Example 153, 2-[(4-But-2-ynyloxy-benenesulfonyl)-methyl-amino]-N-hydroxy-3-methyl-3-benzylsulfanyl-butyramide], the inhibition at 3 µM is 46%.
Consider `CC#CCOc1ccc(S(=O)(=O)N(C)[C@H](CSC)C(=O)NO)cc1` [Example 154], for which the inhibition at 3 µM was 90%.
Turning to `CC#CCOc1ccc(S(=O)(=O)N(Cc2cccnc2)C(CSCc2ccccc2)C(=O)NO)cc1` (centres unmarked) [Example 157, 3-(Benzylthio)-2-[[[4-(2-butynyloxy)phenyl]sulfonyl]pyridin-3-ylmethylamino]-N-hydroxypropanamide], the inhibition at 3 µM is 79%.
Still for that read-out and setting: the value for `CC#CCOc1ccc(S(=O)(=O)NC(C(=O)NO)c2ccc(O)cc2)cc1` (centres unmarked) [Example 176, 2-({[4-(2-Butynyloxy)phenyl]sulfonyl}amino)-N-hydroxy-2-(4-hydroxyphenyl)acetamide] was 89%; that for `C#CCOc1ccc(C(NS(=O)(=O)c2ccc(OCC#CC)cc2)C(=O)NO)cc1` (centres unmarked) [Example 177, 2-({[4-(2-Butynyloxy)phenyl]sulfonyl}amino)-N-hydroxy-2-[4-(2-propynyloxy)phenyl]acetamide] was 64%.
As for `CC#CCOc1ccc(S(=O)(=O)N(C)C(C(=O)NO)c2ccc(OC)cc2)cc1` (centres unmarked) [Example 178, 2-[{[4-(2-Butynyloxy)phenyl]sulfonyl}(methyl)amino]-N-hydroxy-2-(4-methoxyphenyl)acetamide], the inhibition at 3 µM worked out at 91%.
Still for that read-out and setting: the value for `CC#CCOc1ccc(S(=O)(=O)N(C)C(C(=O)NO)c2ccc(OCCN3CCOCC3)cc2)cc1` (centres unmarked) [Example 179, 2-[{[4-(2-Butynyloxy)phenyl]sulfonyl}(methyl)amino]-N-hydroxy-2-{4-[2-(4-morpholinyl)ethoxy]phenyl}acetamide] was 97%.
On the same count and under the same terms, the value for `CC#CCOc1ccc(S(=O)(=O)N(C)C(C(=O)NO)c2ccc(OCCNC(=O)OC(C)(C)C)cc2)cc1` (centres unmarked) [Example 180, tert-Butyl 2-{4-[1-[{[4-(2-butynyloxy)phenyl]sulfonyl}(methyl)amino]-2-(hydroxyamino)-2-oxoethyl]phenoxy}ethylcarbamate] was 89%; that for `CC#CCOc1ccc(S(=O)(=O)N(C)C(C(=O)NO)c2ccc(OCCN)cc2)cc1` (centres unmarked) [Example 181, 2-[4-(2-Aminoethoxy)phenyl]-2-[{[4-(2-butynyloxy)phenyl]sulfonyl}(methyl)amino]-N-hydroxyacetamide] was 92%; that for `CC#CCOc1ccc(S(=O)(=O)N(C)C(C(=O)NO)c2ccc(OCCN(C)C)cc2)cc1` (centres unmarked) [Example 182, 2-[{[4-(2-Butynyloxy)phenyl]sulfonyl}(methyl)amino]-2-{4-[2-(dimethylamino)ethoxy]phenyl}-N-hydroxyacetamide] was 92%.
In the case of `CC#CCOc1ccc(S(=O)(=O)N(C)C(C(=O)NO)c2ccc(OCCN3CCCC3)cc2)cc1` (centres unmarked) [Example 183, 2-[{[4-(2-Butynyloxy)phenyl]sulfonyl}(methyl)amino]-N-hydroxy-2-{4-[2-(1-pyrrolidinyl)ethoxy]phenyl}acetamide], the inhibition at 3 µM was 93%.
The same measure, in the same setting: with `CC#CCOc1ccc(S(=O)(=O)N(C)C(C(=O)NO)c2ccc(OCCN3CCCC3=O)cc2)cc1` (centres unmarked) [Example 184, 2-[{[4-(2-Butynyloxy)phenyl]sulfonyl}(methyl)amino]-N-hydroxy-2-{4-[2-(2-oxo-1-pyrrolidinyl)ethoxy]phenyl}acetamide] the figure was 94%.
Turning to `CC#CCOc1ccc(S(=O)(=O)N(C)C(C(=O)NO)c2ccc(OCCN3CCN(C(=O)OC(C)(C)C)CC3)cc2)cc1` (centres unmarked) [Example 185, tert-butyl 4-(2-{4-[1-[{[4-(2-butynyloxy)phenyl]sulfonyl}(methyl)amino]-2-(hydroxyamino)-2-oxoethyl]phenoxy}ethyl)-1-piperazinecarboxylate], the inhibition at 3 µM was 89%.
With `CC#CCOc1ccc(S(=O)(=O)N(C)C(C(=O)NO)c2ccc(OCCN3CCNCC3)cc2)cc1` (centres unmarked) [Example 186, 2-[{[4-(2-butynyloxy)phenyl]sulfonyl}(methyl)amino]-N-hydroxy-2-{4-[2-(1-piperazinyl)ethoxy]phenyl}acetamide], the inhibition at 3 µM came to 93%.
Same read-out and setting: with `CC#CCOc1ccc(S(=O)(=O)N(C)C(C(=O)NO)c2ccc(OCCCNC(=O)OC(C)(C)C)cc2)cc1` (centres unmarked) [Example 187, tert-Butyl 3-{4-[1-[{[4-(2-butynyloxy)phenyl]sulfonyl}(methyl)amino]-2-(hydroxyamino)-2-oxoethyl]phenoxy}propylcarbamate] the figure was 91%; with `CC#CCOc1ccc(S(=O)(=O)N(C)C(C(=O)NO)c2ccc(OCCCN)cc2)cc1` (centres unmarked) [Example 188, 2-[4-(3-Aminopropoxy)phenyl]-2-[{[4-(2-butynyloxy)phenyl]sulfonyl}(methyl)amino]-N-hydroxyacetamide], 94%.
For `CC#CCOc1ccc(S(=O)(=O)N(C)[C@@H](C(=O)NO)c2ccc(O[C@H]3CCN(C(=O)OC(C)(C)C)C3)cc2)cc1` [Example 189, tert-Butyl (3S)-3-{4-[(1R)-1-[{[4-(2-butynyloxy)phenyl]sulfonyl}(methyl)amino]-2-(hydroxyamino)-2-oxoethyl]phenoxy}-1-pyrrolidinecarboxylate], the inhibition at 3 µM stood at 92%.
On the same count and under the same terms, with `CC#CCOc1ccc(S(=O)(=O)N(C)[C@@H](C(=O)NO)c2ccc(O[C@H]3CCNC3)cc2)cc1` [Example 190, (2R)-2-[{[4-(2-Butynyloxy)phenyl]sulfonyl}(methyl)amino]-N-hydroxy-2-{4-[(3S)-pyrrolidinyloxy]phenyl}ethanamide] the figure was 94%; with `CC#CCOc1ccc(S(=O)(=O)N(C)C(C(=O)NO)c2ccc(OCCN(C)C(=O)OC(C)(C)C)cc2)cc1` (centres unmarked) [Example 191], 90%.
Still for that read-out and setting: with `CC#CCOc1ccc(S(=O)(=O)N(C)C(C(=O)NO)c2ccc(OCCNC)cc2)cc1` (centres unmarked) [Example 192, 2-({[4-(2-Butynyloxy)phenyl]sulfonyl}(methyl)amino)-N-hydroxy-2-{4-[2-(methylamino)ethoxy]phenyl}acetamide] the figure was 95%; with `CC#CCOc1ccc(S(=O)(=O)N(C)C(C(=O)NO)c2ccc(OCCCNC(=O)OCC)cc2)cc1` (centres unmarked) [Example 193, Ethyl 3-{4-[1-[{[4-(2-butynyloxy)phenyl]sulfonyl}(methyl)amino]-2-(hydroxyamino)-2-oxoethyl]phenoxy}propylcarbamate], 91%; with `CC#CCOc1ccc(S(=O)(=O)N(C)C(C(=O)NO)c2ccc(OCCCNC(C)=O)cc2)cc1` (centres unmarked) [Example 194, 2-{4-[3-(Acetylamino)propoxy]phenyl}-2-[{[4-(2-butynyloxy)phenyl]sulfonyl}(methyl)amino]-N-hydroxyacetamide], 94%.
The same measure, in the same setting: with `CC#CCOc1ccc(S(=O)(=O)N(C)C(C(=O)NO)c2ccc(OCCCNC(=O)OCCCC)cc2)cc1` (centres unmarked) [Example 195, Butyl 3-{4-[1-[{[4-(2-butynyloxy)phenyl]sulfonyl}(methyl)amino]-2-(hydroxyamino)-2-oxoethyl]phenoxy}propylcarbamate] the figure was 90%.
Take `CC#CCOc1ccc(S(=O)(=O)N(C)C(C(=O)NO)c2ccc(OCCCNS(C)(=O)=O)cc2)cc1` (centres unmarked) [Example 197, 2-[{[4-(2-Butynyloxy)phenyl]sulfonyl}(methyl)amino]-N-hydroxy-2-(4-{3-[(methylsulfonyl)amino]propoxy}phenyl)acetamide]: the inhibition at 3 µM turned out to be 94%.
Still for that read-out and setting: the value for `CC#CCOc1ccc(S(=O)(=O)N(C)C(C(=O)NO)c2ccc(OCCCNC(=O)Nc3ccccc3)cc2)cc1` (centres unmarked) [Example 198, 2-(4-{3-[(Anilinocarbonyl)amino]propoxy}phenyl)-2-[{[4-(2-butynyloxy)phenyl]sulfonyl}(methyl)amino]-N-hydroxyacetamide] was 92%.

Broadly, the inhibition is the share of the control response that was lost under treatment.
